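These data come from cells grown in 96-well plates and exposed to compound for 48 hours at five concentrations. GI50: concentration for 50% inhibition of growth.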 Active and inactive are the calls of the source. No stated cut-off is given here; in the data, active = GI50 up to about 1.1 µM and inactive = higher.
Columns and labels:
Assay in all cases: inhibition of tumour cell growth, NCI panel, 48 h
PC-3 = system: PC-3
NCI-H460 = system: NCI-H460
OVCAR-3 = system: OVCAR-3
TK-10 = system: TK-10
DU-145 = system: DU-145
UACC-257 = system: UACC-257
MCF7 = system: MCF7
Malme-3M = system: Malme-3M
UO-31 = system: UO-31
A549 = system: A549
CCRF-CEM = system: CCRF-CEM
ACHN = system: ACHN
SK-MEL-5 = system: SK-MEL-5
MOLT-4 = system: MOLT-4
K562 = system: K562
HT-29 = system: HT-29
786-0 = system: 786-0
SNB-75 = system: SNB-75
UACC-62 = system: UACC-62
T47D = system: T47D

SMILES: CC(C(=O)O)c1ccc(-n2nnc3c(=O)[nH][nH]c(=O)c32)cc1 (stereo not drawn)
- GI50 (PC-3): > 100 µM (inactive)
- GI50 (NCI-H460): > 100 µM (inactive)
- GI50 (OVCAR-3): > 100 µM (inactive)
- GI50 (TK-10): > 100 µM (inactive)
- GI50 (DU-145): > 100 µM (inactive)
- GI50 (UACC-257): > 100 µM (inactive)
- GI50 (MCF7): > 100 µM (inactive)
- GI50 (Malme-3M): > 100 µM (inactive)
- GI50 (UO-31): > 100 µM (inactive)
- GI50 (A549): > 100 µM (inactive)
- GI50 (CCRF-CEM): > 100 µM (inactive)
- GI50 (ACHN): > 100 µM (inactive)
- GI50 (SK-MEL-5): > 100 µM (inactive)
- GI50 (MOLT-4): > 100 µM (inactive)
- GI50 (K562): > 100 µM (inactive)

SMILES: ClC1=NN=C(c2c[nH]c3ccccc23)CC1NCc1ccccc1 (stereo not drawn)
- GI50 (PC-3): > 100 µM (inactive)
- GI50 (NCI-H460): > 100 µM (inactive)
- GI50 (OVCAR-3): > 100 µM (inactive)
- GI50 (TK-10): > 100 µM (inactive)
- GI50 (DU-145): > 100 µM (inactive)
- GI50 (HT-29): > 100 µM (inactive)
- GI50 (UACC-257): > 100 µM (inactive)
- GI50 (786-0): > 100 µM (inactive)
- GI50 (Malme-3M): > 100 µM (inactive)
- GI50 (SNB-75): > 100 µM (inactive)
- GI50 (UO-31): > 100 µM (inactive)
- GI50 (A549): > 100 µM (inactive)
- GI50 (CCRF-CEM): > 100 µM (inactive)
- GI50 (ACHN): > 100 µM (inactive)
- GI50 (UACC-62): > 100 µM (inactive)
- GI50 (SK-MEL-5): > 100 µM (inactive)
- GI50 (MOLT-4): > 100 µM (inactive)
- GI50 (T47D): > 100 µM (inactive)
- GI50 (K562): > 100 µM (inactive)

SMILES: Nc1c(C(=O)c2ccccc2)nnc2ccccc12
- GI50 (PC-3): 24.8 µM (inactive)
- GI50 (NCI-H460): 24 µM (inactive)
- GI50 (TK-10): 24.3 µM (inactive)
- GI50 (DU-145): 23.4 µM (inactive)
- GI50 (HT-29): 25.8 µM (inactive)
- GI50 (UACC-257): 28.2 µM (inactive)
- GI50 (786-0): 30.5 µM (inactive)
- GI50 (MCF7): 20.4 µM (inactive)
- GI50 (Malme-3M): 27 µM (inactive)
- GI50 (UO-31): 24.7 µM (inactive)
- GI50 (A549): 37.3 µM (inactive)
- GI50 (ACHN): 24.8 µM (inactive)
- GI50 (UACC-62): 17.5 µM (inactive)
- GI50 (SK-MEL-5): 16.7 µM (inactive)
- GI50 (MOLT-4): 36.1 µM (inactive)
- GI50 (K562): 30.8 µM (inactive)

SMILES: CC(C)=CC(=O)OC1C2C(C)C(=O)OC2C(O)C(C)C2C=CC(=O)C21C (stereo not drawn)
- GI50 (NCI-H460): 1.96 µM (inactive)
- GI50 (OVCAR-3): 2.75 µM (inactive)
- GI50 (HT-29): 3.21 µM (inactive)
- GI50 (UACC-257): 3.94 µM (inactive)
- GI50 (MCF7): 2.43 µM (inactive)
- GI50 (Malme-3M): 3.58 µM (inactive)
- GI50 (SNB-75): 2.72 µM (inactive)
- GI50 (UO-31): 6.03 µM (inactive)
- GI50 (A549): 8.65 µM (inactive)
- GI50 (CCRF-CEM): 0.802 µM (active)
- GI50 (UACC-62): 1.47 µM (inactive)
- GI50 (SK-MEL-5): 3.32 µM (inactive)
- GI50 (MOLT-4): 1.23 µM (inactive)
- GI50 (K562): 2.14 µM (inactive)

SMILES: CC(C)CCCCCCCCCCCCC(=O)NCC(=O)NC1C(C)OC(Nc2ncnc3c2ncn3C)C(O)C1O (stereo not drawn)
- GI50 (NCI-H460): 3.09 µM (inactive)
- GI50 (OVCAR-3): 3.52 µM (inactive)
- GI50 (HT-29): 4.2 µM (inactive)
- GI50 (UACC-257): 19.4 µM (inactive)
- GI50 (MCF7): > 100 µM (inactive)
- GI50 (Malme-3M): 2.32 µM (inactive)
- GI50 (SNB-75): 2.33 µM (inactive)
- GI50 (UO-31): 1.9 µM (inactive)
- GI50 (A549): 8.28 µM (inactive)
- GI50 (CCRF-CEM): > 100 µM (inactive)
- GI50 (UACC-62): 3.18 µM (inactive)
- GI50 (SK-MEL-5): > 74.3 µM (inactive)
- GI50 (MOLT-4): > 100 µM (inactive)
- GI50 (K562): > 73.3 µM (inactive)

SMILES: CN(CC(=O)O)c1ncc2c(n1)-c1ccccc1SC2
- GI50 (PC-3): > 100 µM (inactive)
- GI50 (NCI-H460): > 100 µM (inactive)
- GI50 (TK-10): > 100 µM (inactive)
- GI50 (DU-145): > 100 µM (inactive)
- GI50 (HT-29): > 100 µM (inactive)
- GI50 (UACC-257): > 100 µM (inactive)
- GI50 (786-0): > 100 µM (inactive)
- GI50 (MCF7): 69.8 µM (inactive)
- GI50 (Malme-3M): 50.1 µM (inactive)
- GI50 (SNB-75): > 100 µM (inactive)
- GI50 (UO-31): > 100 µM (inactive)
- GI50 (A549): > 100 µM (inactive)
- GI50 (CCRF-CEM): > 100 µM (inactive)
- GI50 (ACHN): > 100 µM (inactive)
- GI50 (UACC-62): > 100 µM (inactive)
- GI50 (SK-MEL-5): > 100 µM (inactive)
- GI50 (MOLT-4): > 100 µM (inactive)

SMILES: C1CSCC2(COC2)CS1
- GI50 (PC-3): > 100 µM (inactive)
- GI50 (NCI-H460): > 100 µM (inactive)
- GI50 (TK-10): > 100 µM (inactive)
- GI50 (DU-145): > 100 µM (inactive)
- GI50 (HT-29): > 100 µM (inactive)
- GI50 (UACC-257): > 100 µM (inactive)
- GI50 (MCF7): > 100 µM (inactive)
- GI50 (SNB-75): > 100 µM (inactive)
- GI50 (UO-31): > 100 µM (inactive)
- GI50 (A549): > 100 µM (inactive)
- GI50 (CCRF-CEM): > 100 µM (inactive)
- GI50 (ACHN): > 100 µM (inactive)
- GI50 (SK-MEL-5): > 100 µM (inactive)
- GI50 (MOLT-4): > 100 µM (inactive)
- GI50 (K562): > 100 µM (inactive)

SMILES: Oc1cc(-c2ccc(F)cc2)nc2ncccc12
- GI50 (TK-10): > 100 µM (inactive)
- GI50 (DU-145): 74.6 µM (inactive)
- GI50 (HT-29): 42.7 µM (inactive)
- GI50 (UACC-257): 30.5 µM (inactive)
- GI50 (MCF7): 38.5 µM (inactive)
- GI50 (Malme-3M): 65.6 µM (inactive)
- GI50 (SNB-75): 20.7 µM (inactive)
- GI50 (UO-31): 34.4 µM (inactive)
- GI50 (A549): 52.8 µM (inactive)
- GI50 (CCRF-CEM): 36.2 µM (inactive)
- GI50 (ACHN): 73.8 µM (inactive)
- GI50 (UACC-62): 33.8 µM (inactive)
- GI50 (MOLT-4): 52.7 µM (inactive)
- GI50 (T47D): 48.1 µM (inactive)
- GI50 (K562): 22.2 µM (inactive)

SMILES: CC(=O)NC1C(OCc2ccccc2)OC(CO)C(O)C1OCC(=O)NC(C)C(=O)NC(CCC(=O)NCCCCCNc1c2ccccc2nc2cccc([N+](=O)[O-])c12)C(N)=O (stereo not drawn)
- GI50 (PC-3): < 0.0001 µM (active)
- GI50 (NCI-H460): < 0.0001 µM (active)
- GI50 (OVCAR-3): < 0.01 µM (active)
- GI50 (TK-10): 0.023 µM (active)
- GI50 (DU-145): < 0.0001 µM (active)
- GI50 (HT-29): < 0.0001 µM (active)
- GI50 (UACC-257): < 0.0001 µM (active)
- GI50 (786-0): < 0.0001 µM (active)
- GI50 (MCF7): < 0.0001 µM (active)
- GI50 (Malme-3M): < 0.0001 µM (active)
- GI50 (SNB-75): < 0.0001 µM (active)
- GI50 (UO-31): < 0.01 µM (active)
- GI50 (A549): < 0.0001 µM (active)
- GI50 (CCRF-CEM): 0.000861 µM (active)
- GI50 (ACHN): < 0.0001 µM (active)
- GI50 (SK-MEL-5): < 0.0001 µM (active)
- GI50 (MOLT-4): < 0.0001 µM (active)
- GI50 (K562): < 0.0001 µM (active)

— ChEMBL document CHEMBL1201862, “PubChem BioAssay data set” (2004)
